Here are results for two molecules from ChEMBL document CHEMBL6153080, “Synthesis and Chemical Structure of the Cyclic Heptapeptide Stylissamide H” (J Nat Prod, 2025).

By EC50 is commonly meant the midpoint of the concentration-response curve. The low end stands for higher potency in that assay, the high end for lower potency in that assay.

The test system of the test is HeLa. Nature of the test: Cytotoxicity against human HeLa cells incubated for 24 hrs by WST-8 assay. Format: functional, cell-based.

Consider `CC[C@H](C)[C@@H]1NC(=O)[C@@H]2CCCN2C(=O)[C@H](Cc2c[nH]c3ccccc23)NC(=O)[C@@H]2CCCN2C(=O)[C@H](C(C)C)NC(=O)[C@H](Cc2ccccc2)NC(=O)[C@H](CO)NC1=O`, for which the response was half-maximal at 78 µM (EC50). On to `CCC(C)[C@@H]1NC(=O)[C@@H]2CCCN2C(=O)[C@H](Cc2c[nH]c3ccccc23)NC(=O)[C@@H]2CCCN2C(=O)[C@@H](C(C)C)NC(=O)[C@H](Cc2ccccc2)NC(=O)[C@H](CO)NC1=O` (single isomer, unassigned), for which it took 61 µM to reach a half-maximal effect (EC50).
